Laboratory results: paper PMC12396409, “Screening and hit evaluation of a microbial metabolite library against the pathogenic Plasmodium falciparum and Toxoplasma gondii parasites” (International Journal for Parasitology: Drugs and Drug …, 2025)
Read-outs that look alike come from different tables or passages of the source.

Tests used:
[1] = tested on: P. falciparum 3D7 parasites; assay: P. falciparum growth inhibition assay, 2-cycle (120 h treatment), delayed-death screen and dose-response; type: cell-based, Plasmodium falciparum; conditions: for activity at 2 µg/mL: Plasmodium falciparum, 3D7
[2] = tested on: T. gondii RH strain (RH-Tub-eYFP) tachyzoites; assay: microbe, parasite or virus in culture; type: cell-based, Toxoplasma gondii; conditions: 72 h, 72 h; for percent parasite growth at 2 µg/mL: Toxoplasma gondii
[3] = tested on: P. falciparum 3D7 parasites; assay: P. falciparum growth inhibition assay, 1-cycle (72 h treatment), SYBR DNA staining (library screen at 2 μg/mL and dose-response); type: cell-based, Plasmodium falciparum; conditions: for activity at 2 µg/mL: Plasmodium falciparum, 3D7
[4] = P. falciparum, 120 h, screen at 2 μg/mL, replicate 1
[5] = P. falciparum, 120 h, screen at 2 μg/mL, replicate 2
[6] = T. gondii, screen at 2 μg/mL, replicate 1
[7] = T. gondii, screen at 2 μg/mL, replicate 2
[8] = P. falciparum, 72 h, screen at 2 μg/mL, replicate 1
[9] = P. falciparum, 72 h, screen at 2 μg/mL, replicate 2

`C=C1CC[C@H]2C(C)(C)CCC[C@]2(C)[C@H]1C[C@@]12C[C@H]3C(=O)N4CCC[C@H]4C(=O)N3[C@@H]1Nc1ccccc12` [Drimentine C] gave an activity at 2 µg/mL ([1]; library screen at 2 μg/mL, 120 h, % growth, replicate 1, read-out: Pf_120h_%Growth_Rep1) of 78.4%, an activity at 2 µg/mL ([1]; library screen at 2 μg/mL, 120 h, % growth, replicate 2, read-out: Pf_120h_%Growth_Rep2) of 103% and a percent parasite growth at 2 µg/mL ([2]; library screen at 2 μg/mL, % growth, replicate 1, read-out: Tg_72h_%Growth_Rep1) of 91.6%. The percent parasite growth at 2 µg/mL ([2]; library screen at 2 μg/mL, % growth, replicate 2, read-out: Tg_72h_%Growth_Rep2) was 73.3%, the activity at 2 µg/mL ([3]; library screen at 2 μg/mL, 72 h, % growth, replicate 1, read-out: Pf_72h_%Growth_Rep1) was 85.2% and the activity at 2 µg/mL ([3]; library screen at 2 μg/mL, 72 h, % growth, replicate 2, read-out: Pf_72h_%Growth_Rep2) was 87.9%.
`COc1cc(-c2oc3c(OC)c(OC)cc(O)c3c(=O)c2OC)ccc1O` [Ternatin] was tested, and the activity at 2 µg/mL ([1]; P. falciparum, 120 h, screen at 2 μg/mL, replicate 1, read-out: Pf_120h_%Growth_Rep1) was 137%, the activity at 2 µg/mL ([1]; P. falciparum, 120 h, screen at 2 μg/mL, replicate 2, read-out: Pf_120h_%Growth_Rep2) was 71.9% and the percent parasite growth at 2 µg/mL ([2]; T. gondii, screen at 2 μg/mL, replicate 1, read-out: Tg_72h_%Growth_Rep1) was 71.2%. The percent parasite growth at 2 µg/mL ([2]; T. gondii, screen at 2 μg/mL, replicate 2, read-out: Tg_72h_%Growth_Rep2) was 66.7%, the activity at 2 µg/mL ([3]; P. falciparum, 72 h, screen at 2 μg/mL, replicate 1, read-out: Pf_72h_%Growth_Rep1) was 64% and the activity at 2 µg/mL ([3]; P. falciparum, 72 h, screen at 2 μg/mL, replicate 2, read-out: Pf_72h_%Growth_Rep2) was 81%.
In the case of `C=C(NC(=O)C(=C)NC(=O)c1ccc2c(n1)-c1coc(n1)C(=C)NC(=O)C(=C)NC(=O)c1nc(oc1C)C(=C)NC(=O)[C@H](C(C)(C)O)NC(=O)C(=C)NC(=O)c1nc(oc1C)/C(=C/C)NC(=O)[C@H]([C@@H](C)O)NC(=O)c1csc-2n1)C(N)=O` [Berninamycin A], the Pf_120h_%Growth_Rep1 ([1]; library screen at 2 μg/mL, 120 h, % growth, replicate 1) is reported as 140.98%, the Pf_120h_%Growth_Rep2 ([1]; library screen at 2 μg/mL, 120 h, % growth, replicate 2) is reported as 104.87% and the Tg_72h_%Growth_Rep1 ([2]; library screen at 2 μg/mL, % growth, replicate 1) is reported as 80.20%. For the same molecule, the Tg_72h_%Growth_Rep2 ([2]; library screen at 2 μg/mL, % growth, replicate 2) was 95.18%, the Pf_72h_%Growth_Rep1 ([3]; library screen at 2 μg/mL, 72 h, % growth, replicate 1) was 102.47% and the Pf_72h_%Growth_Rep2 ([3]; library screen at 2 μg/mL, 72 h, % growth, replicate 2) was 88.00%.
With `CCCC(=O)N[C@H]1CCOC1=O` [Butyryl-L-homoserine lactone] the Pf_120h_%Growth_Rep1 [1, 4] was 71.18%, the Pf_120h_%Growth_Rep2 [1, 5] was 93.77% and the Tg_72h_%Growth_Rep1 [2, 6] was 135.04%. For the same molecule, the Tg_72h_%Growth_Rep2 [2, 7] was 102.04%, the Pf_72h_%Growth_Rep1 [3, 8] was 70.61% and the Pf_72h_%Growth_Rep2 [3, 9] was 82.94%.
In the case of `CO[C@@H]1[C@@H](O[C@@H]2O[C@H](C)[C@@H](O[C@H]3C[C@@](C)(O)[C@@H](O)[C@H](C)O3)[C@H](N(C)C)[C@H]2O)[C@@H](CC=O)C[C@@H](C)[C@@H](O[C@H]2CC[C@H](N(C)C)[C@@H](C)O2)/C=C/C=C/C[C@@H](C)OC(=O)C[C@H]1O` [Spiramycin I, reference compound], the “2) Growth (%) at 120 h” value ([1]; P. falciparum, 2 μg/mL, 120 h) is reported as 11.98%, the Pf_120h_%Growth_Rep1 ([1]; P. falciparum, 120 h, parasite screen 2 μg/mL, % growth, replicate 1) is reported as 15.80% and the Pf_120h_%Growth_Rep2 ([1]; P. falciparum, 120 h, parasite screen 2 μg/mL, % growth, replicate 2) is reported as 8.16%. For the same molecule, the “3) Fold change (72 h/120 h)” value ([1]; P. falciparum, growth at 72 h / growth at 120 h, 2 μg/mL) was 6.0, the Tg_72h_%Growth_Rep1 ([2]; T. gondii, parasite screen 2 μg/mL, % growth, replicate 1) was 20.85% and the Tg_72h_%Growth_Rep2 ([2]; T. gondii, parasite screen 2 μg/mL, % growth, replicate 2) was 24.90%. For the same molecule, the “1) Growth (%) at 72 h” value ([3]; P. falciparum, 2 μg/mL, 72 h) was 71.72%, the Pf_72h_%Growth_Rep1 ([3]; P. falciparum, 72 h, parasite screen 2 μg/mL, % growth, replicate 1) was 60.09% and the Pf_72h_%Growth_Rep2 ([3]; P. falciparum, 72 h, parasite screen 2 μg/mL, % growth, replicate 2) was 83.34%.
`CC(C)Cc1cnc(C(O)C(C)C)c(=O)n1O` (stereo not drawn) [BIA-N1641] was tested, and the Pf_120h_%Growth_Rep1 ([1]; P. falciparum 3D7, 120 h, parasite screen at 2 μg/mL, % growth, replicate 1) was 89.64%, the Pf_120h_%Growth_Rep2 ([1]; P. falciparum 3D7, 120 h, parasite screen at 2 μg/mL, % growth, replicate 2) was 132.16% and the Tg_72h_%Growth_Rep1 ([2]; T. gondii, parasite screen at 2 μg/mL, % growth, replicate 1) was 143.25%. The Tg_72h_%Growth_Rep2 ([2]; T. gondii, parasite screen at 2 μg/mL, % growth, replicate 2) was 85.15%, the Pf_72h_%Growth_Rep1 ([3]; P. falciparum 3D7, 72 h, parasite screen at 2 μg/mL, % growth, replicate 1) was 83.86% and the Pf_72h_%Growth_Rep2 ([3]; P. falciparum 3D7, 72 h, parasite screen at 2 μg/mL, % growth, replicate 2) was 85.70%.
In the case of `O=C(O)/C=C/c1ccc(O)cc1` [Coumaric acid, p-], the Pf_120h_%Growth_Rep1 [1, 4] is reported as 65.95%, the Pf_120h_%Growth_Rep2 [1, 5] is reported as 100.33% and the Tg_72h_%Growth_Rep1 [2, 6] is reported as 117.43%. It also gave a Tg_72h_%Growth_Rep2 [2, 7] of 104.71%, a Pf_72h_%Growth_Rep1 [3, 8] of 85.52% and a Pf_72h_%Growth_Rep2 [3, 9] of 91.08%.
`CN1CCC2(c3cccc4c3NC3N(C)CCC43C34CCN(C)C3Nc3ccccc34)c3ccccc3NC12` (stereo not drawn) [BIA-H1948] gave a Pf_120h_%Growth_Rep1 ([1]; P. falciparum 3D7, 120 h, library screen at 2 μg/mL, % growth, replicate 1) of 10.24%, a Pf_120h_%Growth_Rep2 ([1]; P. falciparum 3D7, 120 h, library screen at 2 μg/mL, % growth, replicate 2) of -13.19% and a Tg_72h_%Growth_Rep1 ([2]; T. gondii RH, library screen at 2 μg/mL, % growth, replicate 1) of 27.32%. It also gave a Tg_72h_%Growth_Rep2 ([2]; T. gondii RH, library screen at 2 μg/mL, % growth, replicate 2) of 71.35%, a Pf_72h_%Growth_Rep1 ([3]; P. falciparum 3D7, 72 h, library screen at 2 μg/mL, % growth, replicate 1) of 8.04% and a Pf_72h_%Growth_Rep2 ([3]; P. falciparum 3D7, 72 h, library screen at 2 μg/mL, % growth, replicate 2) of 0.51%.
`CN1C(=O)c2ccccc2NC(=O)/C1=C/c1ccccc1` [Dehydrocyclopeptine] showed a Pf_120h_%Growth_Rep1 [1, 4] of 82.86%, a Pf_120h_%Growth_Rep2 [1, 5] of 97.23% and a Tg_72h_%Growth_Rep1 [2, 6] of 109.69%. For the same molecule, the Tg_72h_%Growth_Rep2 [2, 7] was 83.37%, the Pf_72h_%Growth_Rep1 [3, 8] was 83.17% and the Pf_72h_%Growth_Rep2 [3, 9] was 27.60%.
